Experimental data taken from patent US9840512B2, “Antidiabetic bicyclic compounds” (Merck Sharp & Dohme Corp., priority 2013, dated 2017).

Target: T1, human GPR40 (Homo sapiens, UniProt O14842)
Assay: FLIPR assay (agonist-induced calcium mobilization)
Conditions: CHONFAT, read-out: Human FLIPR EC50, nM or % activation (% activation values)
Procedure: Human and mouse GPR40 stable cell-lines were generated in CHO cells stably expressing NFAT BLA (Beta-lactamase). […] The expression plasmids were transfected using lipofectamine (Life Technologies) following manufacturer's instructions. Stable cell-lines were generated following drug selection.
FLIPR (Fluorimetric Imaging Plate Reader, Molecular Devices) assays were performed to measure agonist-induced calcium mobilization of the stable clones. For the FLIPR assay, one day before assay, GPR40/CHO NFAT BLA cells were seeded into black-wall-clear-bottom 384-well plates (Costar) at 1.4×10e4 cells/20 μL medium/well. The cells were incubated with 20 μl/well of the assay buffer (HBSS, 0.1% BSA, 20 mM HEPES, 2.5 mM probenecid, pH 7.4) containing 8 μM fluo-4, AM, 0.08% pluronic acid at room temperature for 100 minutes. Fluorescence output was measured using FLIPR. Compounds were dissolved in DMSO and diluted to desired concentrations with assay buffer.

T1 sequence (O14842 whole entry): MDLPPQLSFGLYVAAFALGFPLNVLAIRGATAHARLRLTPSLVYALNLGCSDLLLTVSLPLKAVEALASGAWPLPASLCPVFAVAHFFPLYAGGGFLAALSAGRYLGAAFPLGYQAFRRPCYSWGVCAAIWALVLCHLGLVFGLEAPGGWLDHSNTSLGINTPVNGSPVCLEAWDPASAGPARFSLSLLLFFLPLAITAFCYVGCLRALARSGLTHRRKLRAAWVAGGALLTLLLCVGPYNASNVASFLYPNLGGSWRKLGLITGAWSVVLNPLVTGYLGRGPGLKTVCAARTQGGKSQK

Row | Compound | activation at 10 µM [%]
1 | O=C(O)CCc1ccc2c(c1)CCC(c1ccccc1)O2 (racemic) [Example 2] | 79
2 | Cc1cccc(C)c1-c1cccc(C2CC(=O)c3cc(CCC(=O)O)ccc3O2)c1 (racemic) [Example 7, 3-(2-(2′,6′-dimethyl-[1,1′-biphenyl]-3-yl)-4-oxochroman-6-yl)propanoic acid] | 70
3 | COc1ccccc1C(CC(=O)O)c1ccc2c(c1)CCC(c1cccc(-c3c(C)cccc3C)c1)O2 (stereo not drawn) [Example 45] | 12.5
4 | COc1cccc(C(CC(=O)O)c2ccc3c(c2)CCC(c2cccc(-c4c(C)cccc4C)c2)O3)c1 (stereo not drawn) [Example 46] | 41
5 | COc1ccc(C(CC(=O)O)c2ccc3c(c2)CCC(c2cccc(-c4c(C)cccc4C)c2)O3)cc1 (stereo not drawn) [Example 47] | 61

Same assay, conditions: Human FLIPR EC50, nM or % activation (EC50 values), GPR40/CHO NFAT BLA cells

Row | Compound | EC50 [nM]
6 | CC#CC(CC(=O)O)c1ccc2c(c1)CCC(c1nc(-c3c(C)cccc3C)ccc1F)O2 (mixture of isomers) [Example 16] | 76
7 | CC#CC(CC(=O)O)c1ccc2c(c1)CCC(c1ccc(C(F)(F)F)c(Cl)c1)O2 (mixture of isomers) [Example 18] | 1540
8 | CC#CC(CC(=O)O)c1ccc2c(c1)CCC(c1nc(-c3ccc(OC)nc3C)ccc1F)O2 (mixture of isomers) [Example 19] | 106
9 | CC#CC(CC(=O)O)c1ccc2c(c1)CCC(c1nc(-c3cccnc3C(F)(F)F)ccc1F)O2 (mixture of isomers) [Example 20] | 172
10 | CC#CC(CC(=O)O)c1ccc2c(c1)CCC(c1cccc(-c3c(C)noc3C)c1)O2 (mixture of isomers) [Example 22] | 151
11 | CC#CC(CC(=O)O)c1ccc2c(c1)CCC(c1cccc(Oc3ccc(C#N)cc3)c1)O2 (mixture of isomers) [Example 23] | 40
12 | CC#CC(CC(=O)O)c1ccc2c(c1)CCC(c1cc(-c3ccc(OC)nc3C)ccc1F)O2 (mixture of isomers) [Example 24] | 57
13 | CC#CC(CC(=O)O)c1ccc2c(c1)CCC(c1cccc(-c3cccnc3C)c1)O2 (mixture of isomers) [Example 26] | 244
14 | CC#CC(CC(=O)O)c1ccc2c(c1)CCC(c1cccc(-c3ccccc3C(F)(F)F)c1)O2 (mixture of isomers) [Example 27] | 52
15 | CC#CC(CC(=O)O)c1ccc2c(c1)CCC(c1cc(Br)ccc1F)O2 (mixture of isomers) [Example 28] | 115
16 | CC#C[C@@H](CC(=O)O)c1ccc2c(c1)CCC(c1cc(-c3ccc(C(F)(F)F)cc3)ccc1F)O2 (mixture of isomers) [Example 29] | 162
17 | CC#C[C@@H](CC(=O)O)c1ccc2c(c1)CCC(c1cc(-c3cc(OC)ccc3F)ccc1F)O2 (mixture of isomers) [Example 30] | 128
18 | CC#C[C@@H](CC(=O)O)c1ccc2c(c1)CCC(c1cc(-c3cccnc3C(F)(F)F)ccc1F)O2 (mixture of isomers) [Example 31] | 95
19 | Cc1cccc(C)c1-c1cccc(C2CCc3cc(C(CC(=O)O)c4ccccn4)ccc3O2)c1 (mixture of isomers) [Example 34] | 734
20 | Cc1cccc(C)c1-c1cccc(C2CCc3cc(C(CC(=O)O)C4CC4)ccc3O2)c1 (mixture of isomers) [Example 43] | 2040
21 | Cc1ccccc1-c1cccc(C2CCc3cc4c(cc3O2)OC[C@H]4CC(=O)O)c1F (mixture of isomers) [Example 58] | 1040
22 | Cc1cccc(C)c1-c1cccc(C2CC(F)(F)c3cc(CCC(=O)O)ccc3O2)c1 (racemic) [Example 8, 3-(2-(2′,6′-dimethyl-[1,1′-biphenyl]-3-yl)-4,4-difluorochroman-6-yl)propanoic acid] | 349
23 | CC#C[C@@H](CC(=O)O)c1ccc2c(c1)CCC(c1cc(-c3cccnc3C(F)(F)F)ccc1F)O2 (single isomer, unassigned) [Example 36] | 178
24 | CC#C[C@@H](CC(=O)O)c1ccc2c(c1)CCC(c1cccc(-c3c(C)noc3C)c1)O2 (single isomer, unassigned) [Example 39] | 113
25 | CC#C[C@@H](CC(=O)O)c1ccc2c(c1)CCC(c1cccc(-c3c(C)noc3C)c1)O2 (single isomer, unassigned) [Example 40] | 255
26 | CC#CC(CC(=O)O)c1ccc2c(c1)OC(c1ccc(-c3c(C)cccc3C)cc1)CC2 (single isomer, unassigned) [Example 53] | 2140
27 | CC#CC(CC(=O)O)c1ccc2c(c1)OC(c1ccc(-c3c(C)cccc3C)cc1)CC2 (single isomer, unassigned) [Example 54] | 1090
28 | Cc1cccc(C)c1-c1cccc(C2CCc3cc(-c4cc(=O)[nH][s+]4[O-])ccc3O2)c1 [Example 9, (1R)-5-(2-(2′,6′-dimethyl-[1,1′-biphenyl]-3-yl)chroman-6-yl)isothiazol-3(2H)-one 1-oxide] | 1920
29 | Cc1cccc(C)c1-c1cccc(C2CCc3nc(CCC(=O)O)ccc3O2)c1 (stereo not drawn) [Example 10, 3-(2-(2′,6′-dimethyl-[1,1′-biphenyl]-3-yl)-3,4-dihydro-2H-pyrano[3,2-b]pyridin-6-yl)propanoic acid] | 1310
30 | Cc1cccc(C)c1-c1cccc(C2CCc3cc4c(cc3O2)OC[C@H]4CC(=O)O)c1 (stereo partly drawn) [Example 55, 2-((3S)-7-(2′,6′-dimethyl-[1,1′-biphenyl]-3-yl)-3,5,6,7-tetrahydro-2H-furo[3,2-g]chromen-3-yl)acetic acid] | 247
31 | Cc1ccccc1-c1ccc(C2CCc3cc4c(cc3O2)OC[C@H]4CC(=O)O)c(F)c1 (stereo partly drawn) [Example 57] | 1050

Target: T1, human GPR40
Assay: Inositol Phosphate Turnover (IP1) Assay 2
Format: cell-based
Design: expressed in transfected cells
Conditions: HEK cells stably expressing human GPR40, Table 2, read-out: Human IP1
How it was run: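 HEK cells stably expressing human GPR40 (aequorin reporter background) seeded and grown 16 h at 37 °C, then treated with compound in IP-One stimulation buffer for 60 min at 37 °C. IP1 accumulation detected by HTRF/FRET after 60 min with detection reagents in the dark.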

Row | Compound | EC50 [nM]
32 | O=C(O)C[C@H](c1ccc2c(c1)OC(c1ccc(-c3cc(OC(F)(F)F)ccc3F)cc1)CC2)C1CC1 (stereo partly drawn) [Example 76] | 650
33 | COc1cncc(-c2ccc(C3CCc4ccc([C@@H](CC(=O)O)C5CC5)cc4O3)cc2)n1 (stereo partly drawn) [Example 77] | 920
34 | O=C(O)C[C@H](c1ccc2c(c1)OC(c1ccc(-c3cccc(OC4CC4)c3)cc1)CC2)C1CC1 (stereo partly drawn) [Example 78] | 1700
35 | COc1cccc(-c2ccc(C3CCc4ccc([C@@H](CC(=O)O)C5CC5)cc4O3)cc2)c1 (stereo partly drawn) [Example 79] | 22
36 | CSc1cccc(-c2ccc(C3CCc4ccc([C@@H](CC(=O)O)C5CC5)cc4O3)cc2)c1 (stereo partly drawn) [Example 81] | 165
37 | COc1ccc(F)c(-c2ccc(C3CCc4ccc([C@@H](CC(=O)O)C5CC5)cc4O3)cc2)c1F (stereo partly drawn) [Example 82] | 54
38 | CCOc1cc(-c2ccc(C3CCc4ccc([C@@H](CC(=O)O)C5CC5)cc4O3)cc2)ccc1F (stereo partly drawn) [Example 84] | 1520
39 | COc1ccc(F)c(-c2ccc(C3CCc4ccc(C(CC(=O)O)C5CC5)nc4O3)cc2)c1 (stereo not drawn) [Example 136, 3-cyclopropyl-3-(2-(2′-fluoro-5′-methoxy-[1,1′-biphenyl]-4-yl)-3,4-dihydro-2H-pyrano[2,3-b]pyridin-7-yl)propanoic acid] | 217

Same assay, conditions: HEK cells stably expressing human GPR40, Table 3, read-out: Human IP1 activity

Row | Compound | EC50 [nM]
40 | COc1ccc(F)c(-c2ccc([C@@H]3COc4ccc([C@H](C5CC5)[C@H](C)C(=O)O)cc4O3)c(C(F)(F)F)n2)c1 [Example 162, (2S,3R)-3-cyclopropyl-3-((R)-3-(6-(2-fluoro-5-methoxyphenyl)-2-(trifluoromethyl)-pyridin-3-yl)-2,3-dihydrobenzo[b][1,4]dioxin-6-yl)-2-methylpropanoic acid] | 8.2
41 | COc1ccc(F)c(-c2ccc([C@@H]3COc4ccc([C@H](C5CC5)[C@H](C)C(=O)O)cc4O3)cc2C(OC)C(C)(C)C)c1 (stereo partly drawn) [Example 163] | 2.1
42 | COc1ccc(F)c(-c2ccc([C@@H]3COc4ccc([C@H](C5CC5)[C@H](C)C(=O)O)cc4O3)nc2C(F)(F)F)c1 [Example 164] | 8.2
43 | COc1ccc(F)c(-c2ccc(C3COc4ccc([C@H](C5CC5)[C@H](C)C(=O)O)cc4O3)cc2)c1 (stereo partly drawn) [Example 170] | 0.17
44 | CC#C[C@@H](CC(=O)O)c1ccc2c(c1)OCC(c1ccc(-c3cc(OC)ccc3F)cc1)O2 (stereo partly drawn) [Example 175] | 220
45 | COc1ccc(F)c(-c2ccc([C@@H]3COc4ccc([C@H](C5CC5)[C@H](C)C(=O)O)cc4O3)cc2Cl)c1 [Example 178] | 10.6
46 | COc1ccc(F)c(-c2ccc([C@H]3COc4ccc([C@H](C5CC5)[C@H](C)C(=O)O)cc4O3)cc2Cl)c1 [Example 179] | 16.3
47 | COc1ccc(F)c(-c2ccc([C@@H]3COc4ccc([C@H](C5CC5)[C@H](C)C(=O)O)cc4O3)cc2-c2cccc3ccn(C)c23)c1 [Example 180] | 4.8
48 | COc1ccc(F)c(-c2ccc([C@H]3COc4ccc([C@H](C5CC5)[C@H](C)C(=O)O)cc4O3)cc2-c2cccc3ccn(C)c23)c1 [Example 181] | 8.3
49 | COc1ccc(F)c(-c2ccc([C@H]3COc4ccc([C@H](C5CC5)[C@@H](C)C(=O)O)cc4O3)cc2Cl)c1 [Example 183] | 99.6
50 | COc1ccc(F)c(-c2ccc(C3COc4ccc([C@H](C5CC5)[C@H](C)C(=O)O)c(F)c4O3)cc2)c1 (stereo partly drawn) [Example 184] | 1.6
51 | C[C@H](C(=O)O)[C@H](c1ccc2c(c1)O[C@H](C1CN([C@H](C)c3cc(C(F)(F)F)ccc3C(F)(F)F)C1)CO2)C1CC1 [Example 189, (2S,3R)-3-((R)-3-(1-((R)-1-(2,5-bis(trifluoromethyl)phenyl)ethyl)azetidin-3-yl)-2,3-dihydrobenzo[b][1,4]dioxin-6-yl)-3-cyclopropyl-2-methylpropanoic acid] | 13.3
52 | C[C@H](C(=O)O)[C@H](c1ccc2c(c1)O[C@H](C1CN([C@@H](C)c3cc(C(F)(F)F)ccc3C(F)(F)F)C1)CO2)C1CC1 [Example 190] | 20.3

Target: T1, human GPR40
Assay: Inositol Phosphate Turnover (IP1) Assay 1
Conditions: Human IP1 Assay 1, EC50, nM, HEK cells stably expressing human GPR40
Procedure: The assay is performed in 96-well format. HEK cells stably expressing human GPR40 are plated to be 60-80% confluent within 72 h. After 72 h, the plates are aspirated and the cells washed with inositol-free DMEM (ICN). The wash media is replaced with 150 μL of 3H-inositol labeling media (inositol-free media containing 0.4% human albumin or 0.4% mouse albumin, 1× pen/strep antibiotics, glutamine, 25 mM HEPES to which is added 3H-myo-inositol NEN #NET114A 1 mCi/mL, 25 Ci/mmol diluted 1:150 in loading media with a final specific radioactivity of 1 μCi/150 μL). Alternatively, the human and mouse albumin can be added after the overnight labeling step before the addition of LiCl.
The assay is typically run the next day after 18 h labeling. On the day of the assay, 5 μL of 300 mM LiCl is added to all wells and incubated at 37 degrees for 20 min. 0.75 μL of 200× compounds are added and incubated with the cells for 60 min at 37 degrees. The media is then aspirated off and the assay terminated with the addition of 60 μL 10 mM formic acid. The cells are lysed for 60 min at room temperature. 15-30 μL of lysate is mixed with 70 μL/1 mg YSi SPA beads (Amersham) in clear bottom Isoplates. The plates are shaken for 2 h at room temperature. Beads are allowed to settle and the plates are counted in the Wallac Microbeta.

Row | Compound | EC50 [nM]
53 | CC#CC(CC(=O)O)c1ccc2c(c1)CCC(c1nc(-c3c(C)cccc3C)ccc1F)O2 (mixture of isomers) [Example 16] | 710
54 | CC#CC(CC(=O)O)c1ccc2c(c1)CCC(c1nc(-c3ccc(OC)nc3C)ccc1F)O2 (mixture of isomers) [Example 19] | 4500
55 | CC#CC(CC(=O)O)c1ccc2c(c1)CCC(c1cccc(-c3c(C)noc3C)c1)O2 (mixture of isomers) [Example 22] | 638
56 | CC#CC(CC(=O)O)c1ccc2c(c1)CCC(c1cccc(Oc3ccc(C#N)cc3)c1)O2 (mixture of isomers) [Example 23] | 116
57 | CC#CC(CC(=O)O)c1ccc2c(c1)CCC(c1cc(-c3ccc(OC)nc3C)ccc1F)O2 (mixture of isomers) [Example 24] | 58
58 | CC#CC(CC(=O)O)c1ccc2c(c1)CCC(c1cccc(-c3ccccc3C(F)(F)F)c1)O2 (mixture of isomers) [Example 27] | 726
59 | CC#CC(CC(=O)O)c1ccc2c(c1)CCC(c1cc(Br)ccc1F)O2 (mixture of isomers) [Example 28] | 536
60 | CC#C[C@@H](CC(=O)O)c1ccc2c(c1)CCC(c1cc(-c3cccnc3C(F)(F)F)ccc1F)O2 (mixture of isomers) [Example 31] | 60
